Results: paper PMC10781691, “Vertical pathway inhibition of receptor tyrosine kinases and BAD with synergistic efficacy in triple negative breast cancer” (NPJ Precision Oncology, 2024)

Legend:
MDA-MB-231 cells = experiment: CASPASE 3/7 DEVD assay; settings: MDA-MB-231, 5 μM NCK
MDA-MB-231 xenografts = experiment: Orthotopic xenograft, single drug study; type: in vivo, BALB/c-nude mice
Method: Next, the in vivo efficacy of NCK was examined in mice injected orthotopically with MDA-MB-231 cells to form xenografts. When the xenograft volume reached 100 mm^3, mice were randomly grouped and injected i.p. with vehicle, NCK (5 mg/kg q.d.) or NCK (20 mg/kg q.d.) for 21 days.

[1] = NCK 5 and 20 mg/kg q.d. i.p. 21 days

## Oc1ccccc1C(c1cccnc1)N1CCN(c2cccc(Cl)c2Cl)CC1 (stereo not shown) [NCK, 2-((4-(2,3-dichlorophenyl)piperazin-1-yl)(pyridin-3-yl)methyl) phenol]
MDA-MB-231 cells
  CASPASE 3/7 activity vs vehicle: increased CASPASE 3/7 activity
MDA-MB-231 xenografts; NCK 5 mg/kg q.d. i.p. 21 days
  xenograft volume and weight vs vehicle: significantly reduced xenograft volume
MDA-MB-231 xenografts; NCK 20 mg/kg q.d. i.p. 21 days
  xenograft volume and weight vs vehicle: significantly reduced xenograft volume
MDA-MB-231 xenografts; [1]
  MKI67 positivity in xenografts: decreased MKI67 positivity
  TUNEL scores in xenografts: increased TUNEL scores
  body weight vs vehicle: no significant change in body weight
  pBADSer99 in resected xenografts (IHC) vs vehicle: significantly reduced pBADSer99
